# US8420657B2 (Novartis AG, priority 2008, dated 2013)
# Tested on: JAK1/JAK2-dependent nuclear translocation of STAT1-GFP in HT1080 fibrosarcoma cells
# Test: STAT1 nuclear translocation assay (Cellomics), IFN-γ stimulated HT1080 STAT1-GFP cells
# Format: cell-based
# Settings: Homo sapiens, HT-1080, STAT1 translocation pathway
# Method in brief: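 IC50 derived from percent nuclear STAT1-GFP translocation, computed from nuclear minus cytoplasmic GFP intensity against untreated baseline and DMSO-stimulated control. Stable HT1080 STAT1-GFP cells received compound (0.003–10 μM, 0.1% DMSO) 30 min ahead of a 2 h 100 ng/ml IFN-γ stimulus, then fixation and Hoechst nuclear masking.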
row,Compound,IC50 [nM]
1,"Cc1ccc(Nc2ncc3ccn(-c4ccc(C(=O)N5CCN(CCO)CC5)cc4)c3n2)cc1C [Example 300, {4-[2-(3,4-Dimethyl-phenylamino)-pyrrolo[2,3-d]pyrimidin-7-yl]-phenyl}-[4-(2-hydroxy-ethyl)-piperazin-1-yl]-methanone]",2030
2,"COCc1c(F)cc(-n2ccc3cnc(Nc4ccc(N5CCN(C)CC5)nc4)nc32)cc1F [Example 446, [7-(3,5-Difluoro-4-methoxymethyl-phenyl)-7H-pyrrolo[2,3-d]pyrimidin-2-yl]-[6-(4-methyl-piperazin-1-yl)-pyridin-3-yl]-amine]",50
3,"COCc1ccc(Nc2ncc3ccn(-c4cc(F)c(CN5CCS(=O)(=O)CC5)c(F)c4)c3n2)cc1 [Example 184, {7-[4-(1,1-Dioxido-thiomorpholin-4-ylmethyl)-3,5-difluoro-phenyl]-7H-pyrrolo[2,3-d]pyrimidin-2-yl}-(4-methoxymethyl-phenyl)-amine]",35
4,"CN1CCN(C(=O)c2cccc(Nc3ncc4ccn(-c5cc(F)c(CN6CCOCC6)c(F)c5)c4n3)c2)CC1 [Example 203, {3-[7-(3,5-Difluoro-4-morpholin-4-ylmethyl-phenyl)-7H-pyrrolo[2,3-d]pyrimidin-2-ylamino]-phenyl}-(4-methyl-piperazin-1-yl)-methanone]",412
5,"COc1cc(Nc2ncc3ccn(-c4ccc(C(=O)N5CCOCC5)c(F)c4)c3n2)ccc1F [Example 151, {2-Fluoro-4-[2-(4-fluoro-3-methoxy-phenylamino)-pyrrolo[2,3-d]pyrimidin-7-yl]-phenyl}-morpholin-4-yl-methanone]",228
6,"Cn1cc(Nc2ncc3ccn(-c4ccc(CC(=O)N5CCOCC5)cc4)c3n2)cn1 [Example 301, 2-{4-[2-(1-Methyl-1H-pyrazol-4-ylamino)-pyrrolo[2,3-d]pyrimidin-7-yl]-phenyl}-1-morpholin-4-yl-ethanone]",50
7,"Cc1ccc(Nc2ncc3ccn(-c4ccc(C(=O)N5CCOCC5)cc4)c3n2)cn1 [Example 238, {4-[2-(6-Methyl-pyridin-3-ylamino)-pyrrolo[2,3-d]pyrimidin-7-yl]-phenyl}-morpholin-4-yl-methanone]",785
8,"Cc1cc(Nc2ncc3ccn(-c4ccc(C(=O)N5CCOCC5)c(F)c4)c3n2)nn1C [Example 311, {4-[2-(1,5-Dimethyl-1H-pyrazol-3-ylamino)-pyrrolo[2,3-d]pyrimidin-7-yl]-2-fluoro-phenyl}-morpholin-4-yl-methanone]",1400
9,"Cc1ccc(Nc2ncc3ccn(-c4cc(F)c(CN5CCOCC5)c(F)c4)c3n2)cc1CN1CCNCC1 [Example 332, [7-(3,5-Difluoro-4-morpholin-4-ylmethyl-phenyl)-7H-pyrrolo[2,3-d]pyrimidin-2-yl]-(4-methyl-3-piperazin-1-ylmethyl-phenyl)-amine]",375
10,"CC(C)Oc1ccc(Nc2ncc3ccn(-c4ccc(C#N)cc4)c3n2)cc1 [Example 96, 4-[2-(4-Isopropoxy-phenylamino)-pyrrolo[2,3-d]pyrimidin-7-yl]-benzonitrile]",26200

# Tested on: JAK2-dependent nuclear translocation of STAT5-GFP in U-2 OS osteosarcoma cells
# Test: STAT5 nuclear translocation assay (Cellomics), rhEpo stimulated U-2 OS STAT5-GFP cells
# Format: cell-based
# Settings: Homo sapiens, U2OS; STAT5 translocation pathway
# Method in brief: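 U-2 OS cells stably expressing STAT5a-GFP and EpoR pre-treated with compound (final 10 μM to 0.003 μM, 0.1% DMSO) for 30 min at 37° C., then stimulated 1 h with 5 U/ml rhEpo. Nuclear-cytoplasmic GFP differential quantified by automated imaging (≥1000 cells/well, Hoechst nuclear mask). IC50 from % translocation normalized to untreated and DMSO-stimulated controls.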
row,Compound,IC50 [nM]
1,"CC1(C)NCCN(c2cc(Nc3ncc4ccn(-c5cc(F)c(CN6CCOCC6)c(F)c5)c4n3)ccn2)C1=O [Example 503, 1-{4-[7-(3,5-Difluoro-4-morpholin-4-ylmethyl-phenyl)-7H-pyrrolo[2,3-d]pyrimidin-2-ylamino]-pyridin-2-yl}-3,3-dimethyl-piperazin-2-one]",27.5
2,"COCc1c(F)cc(-n2ccc3cnc(Nc4ccc(N5CCN(C)CC5)nc4)nc32)cc1F [Example 446, [7-(3,5-Difluoro-4-methoxymethyl-phenyl)-7H-pyrrolo[2,3-d]pyrimidin-2-yl]-[6-(4-methyl-piperazin-1-yl)-pyridin-3-yl]-amine]",1.3
3,"CN1CCN(c2ccc(Nc3ncc4ccn(-c5cc(F)c(CN6CCS(=O)(=O)CC6)c(F)c5)c4n3)nc2)CC1 [Example 440, {7-[4-(1,1-Dioxido-thiomorpholin-4-ylmethyl)-3,5-difluoro-phenyl]-7H-pyrrolo[2,3-d]pyrimidin-2-yl}-[5-(4-methyl-piperazin-1-yl)-pyridin-2-yl]-amine]",61
4,"Cc1ccc(Nc2ncc3ccn(-c4cc(F)c(CN5CCNC(=O)C5)c(F)c4)c3n2)cc1CN1CCNCC1 [Example 382, 4-{2,6-Difluoro-4-[2-(4-methyl-3-piperazin-1-ylmethyl-phenylamino)-pyrrolo[2,3-d]pyrimidin-7-yl]-benzyl}-piperazin-2-one]",121
5,"Cc1ccc(Nc2ncc3ccn(-c4cc(F)c(CN5CCOCC5)c(F)c4)c3n2)cc1CN1CCNCC1 [Example 332, [7-(3,5-Difluoro-4-morpholin-4-ylmethyl-phenyl)-7H-pyrrolo[2,3-d]pyrimidin-2-yl]-(4-methyl-3-piperazin-1-ylmethyl-phenyl)-amine]",73
6,"C[C@@H]1CN(c2ccc(Nc3ncc4ccn(-c5ccc(NS(C)(=O)=O)cc5)c4n3)cn2)C[C@H](C)N1 [Example 380, N-(4-{2-[6-(cis-3,5-Dimethyl-piperazin-1-yl)-pyridin-3-ylamino]-pyrrolo[2,3-d]pyrimidin-7-yl}-phenyl)-methanesulfonamide]",46
7,"Fc1cc(-n2ccc3cnc(Nc4ccnc(CN5CCNCC5)c4)nc32)cc(F)c1CN1CCOCC1 [Example 372, [7-(3,5-Difluoro-4-morpholin-4-ylmethyl-phenyl)-7H-pyrrolo[2,3-d]pyrimidin-2-yl]-(2-piperazin-1-ylmethyl-pyridin-4-yl)-amine]",57
